Like-named read-outs stand apart in the source and are kept apart here.
Legend:
[1] = test system: 6C3HED lymphosarcoma; assay: Tumor immunization with fixed ascites cells and challenge with viable cells; assay type: in vivo, C3H mice; details: cells fixed in 3% agent; two immunizations; challenge 100,000 viable cells i.p.; ">65" is given as "No deaths at 65 days"
Protocol: (§1) Tumor Immunization. 6C3HED lymphosarcoma was grown in C3H mice as ascites (ascites cause collection of fluid in the peritoneal cavity). The ascites cells were then washed in phosphate buffered saline (PBS) containing 3% IDU, 3% Glydant, or 3% Dimethylol urea. The cells were then placed at 6° C. for 48 hours.
As a control for immunization, cells were also washed into PBS containing 3% para formaldehyde and held under the same conditions. After 48 hours, all the cell groups were washed into PBS to remove the fixatives. The cell count was adjusted to 200,000/ml. Five C3H mice were injected with each of the cell groups for the first immunization. The procedure was repeated two weeks later.
The immunized mice were challenged with 100,000 viable 63HED ascites cells by intraperitoneal injection. The efficacy of the immunization was determined by the average death time for each group of mice.

[2] = Toxicity studies comparing diazolidinyl urea with formaldehyde; assay type: in vivo; details: for LD50: route and species not given
Text: Unlike the typical histological fixing agents, the active agents of the invention have extremely low toxicity. For example, toxicity studies comparing diazolidinyl urea of the invention with formaldehyde of the prior art show the following: […]

[3] = test system: albumin; details: 24 hours incubation
Protocol: Formaldehyde cross-links with itself and proteins to obscure the antigen. To determine if this is true, diazolidinyl urea was added to the protein, albumin.

[4] = Formaldehyde content or release; assay type: physicochemical
[5] = test system: tetanus toxin; assay type: in vivo, Swiss mice
[6] = test system: RBC's; assay: Relative RBC fixation detected by adding RBC lysing agent; assay type: cell-based; details: 6% w/v solution, 24 hours, 22° C
Protocol: (§2) A 6% w/v solution of each compound was used and samples tested at 24 hours (22° C). […] Relative RBC fixation was detected by adding known RBC lysing agent. […] Fixing is relative and depends on how long you want cells or tissues to remain fixed.

[7] = test system: human white blood cells; assay: Stabilization of white blood cells for flow cytometry (leukocyte positive control); assay type: cell-based
Text: Leukocyte Positive Control Check for Antigen-Antibody Studies. Positive control methods are needed to verify the performance of reagents, preparation methods, staining procedures as well as the performance of the flow cytometer instrumentation itself. This requires a preparation of human white blood cells, preferably with a mixed distribution of leukocytes (lymphocytes, monocytes, and granulocytes), to evaluate the performance of the procedure before it is used to evaluate subject tissues, cells, or cell components. While much of the methodology used in this procedure is familiar to those skilled in the art, this invention is novel in its use of imidazolidinyl urea (IDU) as a cell stabilizer, the use of polyethylene glycol to reduce damage to the white blood cells during processing, the use of PMSF to inhibit protease activity, and the process itself.
The invention discloses a new method of producing a positive control check material with significant advances over the prior art. Production is begun by placing one pack of human white blood cells, obtainable from commercial blood banks, in each bottle of the centrifuge. Samples from each pack are placed into a plastic tube for screening on the flow cytometer. Because of the considerable variation from donor to donor in cluster designation antigen sites, only packs with similar properties are pooled. Each product pool should be limited to a particular ABO blood type to prevent clumping as a result of a histoin-compatibility reaction between the cells. The samples are placed into plastic tubes rather than glass because unfixed white blood cells may be activated by the glass causing them to adhere to the glass and each other.
The cells are prefixed 1:1 with 1% IDU in phosphate buffered saline ethylenediaminetetraacetic acid (PBS-EDTA) at 6° C. for one hour. […] The cells and all diluents used in the processing must be kept at 6° C. at all times by use of refrigeration and a chiller bath to reduce the amount of cell damage which alters the scattergram.
The bottle are next centrifuged at 900 rpm for 10 minutes, and the supernatant is removed. This angular velocity is sufficient to pellet the white blood cells without damaging them. Ammonium chloride tris, 200 ml/bottle set at 6° C. for 20-30 minutes, is then used to lyse the red blood cells.
A second centrifugation follows, again at 900 rpm for 10 minutes, and the supernatant is removed. Next 250 ml/bottle of ammonium chloride tris are added at 6° C. or 45-60 minutes, with 60 minutes usually ensuring complete lysis of the red blood cells.
The material is then centrifuged a third time at 900 rpm for 10 minutes and then the supernatant is removed. […]

[8] = test system: 6C3HED lymphosarcoma ascites cells; assay: Vital staining of ascites cells held in fixative 48 hours; assay type: cell-based, C3H mice; details: 3% in PBS, 6° C.
Protocol: as §1

[9] = test system: WBC's; assay: WBC fixation (cells do not disintegrate or clump after removal of compound); assay type: cell-based; details: 6% w/v solution, 24 hours, 22° C
Protocol: as §2

[10] = solution (Glydant), as such (Suttocide)

para formaldehyde [Control, reference compound]
Average Death Days [1]: 10 days

C=O [Formaldehyde, formaldehyde, reference compound]
Dermal Toxicity ([2]; in vivo): 270 mg/kg
Inhalation Toxicity ([2]; in vivo): 500 mg/kg
LD50 ([2]; in vivo, read-out: LD50): 800 mg/kg
Disc-gel electrophoresis result with albumin [3]: a large number of multimers and insoluble proteins result

imidazolidinyl urea
Formaldehyde release [4]: Decomposition releases formaldehyde
percent increase in antibody titer over formalin, 14 Days ([5]; 14 days): 200%
percent increase in antibody titer over formalin, 28 Days ([5]; 28 days): 560%
Average Death Days [1]: > 65 days
Fixation of RBC's [6]: Fixes both RBC's and WBC's
Effect on white blood cells, prefixation ([7]; 1% IDU in PBS-EDTA, 1:1, 6° C., one hour): stabilize the white blood cells without interfering with the lysis of the red blood cells
Effect on cells, fixation ([7]; 3% IDU, 6° C., 2 days): stabilizes the cells for use on the flow cytometer
Effect on cells, fixation at higher concentrations ([7]; IDU concentrations higher than 3%): causing cells to lose the cluster designation marker and produce scatterplot changes
Effect on cells, fixation at lower concentrations ([7]; IDU concentrations lower than 3%): reducing stability
Viability by vital staining [8]: none of the cells were viable
Fixation of WBC's [9]: Fixes both RBC's and WBC's

diazolidinyl urea
Formaldehyde content [4]: 1-2 ppm
Dermal Toxicity ([2]; in vivo): 2000 mg/kg
Inhalation Toxicity ([2]; in vivo): None
LD50 [2]: 2570 mg/kg
Fixation of RBC's [6]: Fixes both RBC's and WBC's
Disc-gel electrophoresis result with albumin [3]: no change in the rate of migration of the protein
Fixation of WBC's [9]: Fixes both RBC's and WBC's

CC1(C)C(=O)N(CO)C(=O)N1CO [Glydant, Dimethylol-5,5-dimethylhydantoin]
Formaldehyde content [4, 10]: 2.1%
Average Death Days [1]: > 65 days
Fixation of RBC's [6]: Fixes both RBC's and WBC's
Viability by vital staining [8]: none of the cells were viable
Fixation of WBC's [9]: Fixes both RBC's and WBC's

O=C(O)CNCO [Suttocide, Sodium hydroxymethyl glycinate]
Formaldehyde content [4, 10]: 1%
Fixation of RBC's [6]: Fixes RBC's and WBC's
Fixation of WBC's [9]: Fixes RBC's and WBC's

O=C(NCO)NCO [Dimethylol urea, dimethylol urea]
Average Death Days [1]: > 65 days

O=[N+]([O-])C(Br)(CO)CO [Bronopol, 2-bromo-2-nitropropane-1,3-diol]
Formaldehyde release [4]: Decomposition liberates formaldehyde
Fixation of RBC's [6]: Fixes both RBC's and WBC's
Fixation of WBC's [9]: Fixes both RBC's and WBC's
